# Several values for one entry are separate records, joined by “and”; a condition that tells them apart may be missing. Identical values can stand only once. Like-named read-outs stand apart in the source and are kept apart here.
# Legend:
# [1] = Phase 1/2 study: plasma pharmacokinetics of Compound (I) in patients (LC-MS/MS, non-compartmental analysis); type: in vivo, human
# Procedure: The following example presents a phase 1/2 study of Compound (I) in patients with solid tumors harboring GNAQ/11 mutations or PRKC fusions.
# Patients with MUM were sequentially enrolled into Cohort 1 or Cohort 2. Enrollment into Cohort 2 was not initiated until enrollment into Cohort 1 was completed and the dose considered safe. • a. Cohort 1. 6 patients were sequentially enrolled and received 300 mg twice a day (BID), daily, for 28-day treatment cycles. • b. Cohort 2. 6 patients were sequentially enrolled and received 400 mg BID, preceded by an initial 7-day 200 mg BID run-in period, for 28-day treatment cycles. All patients continue to receive treatment with Compound (I) unless the subject experiences one or more of the following: • Adverse event • Lost to follow-up • Physician decision • Progressive disease • Study termination by the Sponsor • Patient/guardian decision • Protocol deviation • Non-compliance with protocol • Death • Pregnancy NUMBER OF SUBJECTS: 12 patients
# The following example presents pharmacokinetic results from the study as described in Example 1.
# Blood samples were collected on Cycle 1 Day 1 and Day 15 from patients who were administered 300 mg BID of Compound (I), and on Cycle 1 Day 8 and Day 22 from patients who were administered 200 mg BID for 7 days followed by 400 mg BID of Compound (I) for the remainder of the treatment cycle. The plasma samples were processed by protein precipitation (see Ahuja S and Dong M. W, Handbook of Pharmaceutical Analysis by HPLC, Elsevier Inc., Chapter 17, page 433, 2005) and analyzed using an LC-MS/MS method; Quantification was achieved using Compound (I) peak area to internal standard (3-amino-N-(3-(4-amino-4-(methyl-d3)piperidin-1-yl)pyridin-2-yl)-6-(3-(trifluoromethyl)pyridin-2-yl)pyrazine-2-carboxamide) peak area ratios. Concentrations of the calibration curve standards, quality control samples, and patient samples were determined by the method of 1/x^2 weighted least squares linear regression.
# The Pharmacokinetic parameters were calculated using Phoenix WinNonlin software (non-compartmental analysis).
# [2] = Hypotension studies: adverse events, single agent Compound (I) BID schedule (Table 5); type: in vivo, human
# [3] = Hypotension studies: adverse events, single-agent Compound (I), 300 mg BID vs 400 mg BID with 7-day 200 mg run-in (Tables 6, 7); type: in vivo
# From the text: Patients with MUM were sequentially enrolled into Cohort 1 or Cohort 2. Enrollment into Cohort 2 was not initiated until enrollment into Cohort 1 was completed and the dose considered safe. • a. Cohort 1. […] Cohort 2. […] All patients continue to receive treatment with Compound (I) unless the subject experiences one or more of the following: • Adverse event • Lost to follow-up • Physician decision • Progressive disease • Study termination by the Sponsor • Patient/guardian decision • Protocol […]
# [4] = tested on: metastatic uveal melanoma (MUM); conditions: cited from earlier work
# [5] = cited from earlier work; for Dose limiting toxicities (DLTs): evaluable patients
# [6] = 300 mg BID, N = 18, regardless of study drug relationship
# [7] = 400 mg, N = 6, regardless of study drug relationship
# [8] = All BID Patients, N = 30, regardless of study drug relationship
# [9] = 300 mg BID, N = 26, regardless of study drug relationship
# [10] = 400 mg BID with 7-day 200 mg run-in, N = 30
# [11] = 400 mg BID with 7-day 200 mg run-in, N = 30, regardless of study drug relationship
# [12] = All Patients, N = 56, regardless of study drug relationship
# [13] = cohort that received BID dosing of 200 to 400 mg
compound,measurement,setting,value
"CC1(N)CCN(c2cccnc2NC(=O)c2nc(-c3ncccc3C(F)(F)F)cnc2N)CC1 [Compound (I), 3-amino-N-(3-(4-amino-4-methylpiperidin-1-yl)pyridin-2-yl)-6-(3-(trifluoromethyl)pyridin-2-yl)pyrazine-2-carboxamide]",Tmax,"[1]; individual patients, 400 mg BID with 200 mg run-in, C1 Day 22",2 h and 1 h and 6 h and 0.5 h and 4 h
same,"mean Cmin at steady state, higher at 400 mg BID (with 200 mg run-in) than at 300 mg BID",[1]; steady state,~40%
same,mean steady state exposure (200 mg BID 7 days then 400 mg BID) vs 300 mg BID,[1]; steady state,higher mean steady state exposure
same,"Hypotension, all grades",[2]; [6],3 (16.7)
same,"Hypotension, grade >3",[2]; [6],0
same,"Hypotension, all grades",[2]; [7],4 (66.7)
same,"Hypotension, grade >3",[2]; [7],1 (16.7)
same,"Hypotension, all grades",[2]; [8],7 (23.3)
same,"Hypotension, grade >3",[2]; [8],1 (3.3)
same,"Hypotension, all grades, treatment-emergent, suspected to be study related","[3]; 300 mg BID, N = 26",1 (3.8) n (%)
same,"Hypotension, grade 3/4, treatment-emergent, suspected to be study related","[3]; 300 mg BID, N = 26",0 n (%)
same,"Hypotension, all grades",[3]; [9],1 (3.8) n (%)
same,"Hypotension, grade 3/4",[3]; [9],0 n (%)
same,"Hypotension, all grades, treatment-emergent, suspected to be study related",[3]; [10],2 (6.7) n (%)
same,"Hypotension, grade 3/4, treatment-emergent, suspected to be study related",[3]; [10],0 n (%)
same,"Hypotension, all grades",[3]; [11],4 (13.3) n (%)
same,"Hypotension, grade 3/4",[3]; [11],0 n (%)
same,"Hypotension, all grades, treatment-emergent, suspected to be study related","[3]; All Patients, N = 56",3 (5.4) n (%)
same,"Hypotension, grade 3/4, treatment-emergent, suspected to be study related","[3]; All Patients, N = 56",0 n (%)
same,"Hypotension, all grades",[3]; [12],5 (8.9) n (%)
same,"Hypotension, grade 3/4",[3]; [12],0 n (%)
same,frequency of hypotension at 400 mg BID with 200 mg run-in vs 400 mg BID alone,[3]; in vivo,less frequently
same,confirmed partial responses (PRs),"[4]; 68 patients, QD and BID, as of September 2018, preliminary",six
same,unconfirmed PRs,"[4]; 68 patients, as of September 2018, preliminary",two
same,confirmed PRs,[4]; [13],Four
same,patients with SD as best response (2 being unconfirmed PRs),[4]; [13],18
same,Dose limiting toxicities (DLTs),[5]; BID schedule,2 of 17
same,maximum tolerated dose,[5]; BID schedule,400 mg BID
same,Dose limiting toxicities (DLTs),[5]; QD schedule,7 of 38
same,maximum tolerated dose,[5]; QD schedule,500 mg QD
same,most common DLT,"[5]; human, in vivo",hypotension
same,recommended dose for expansion (RDE),"[5]; human, in vivo",300 mg BID

# Source: US20220401440A1, “DOSING REGIMENS FOR A PROTEIN KINASE C INHIBITOR” (IDEAYA BIOSCIENCES, INC., priority 2019, published 2022)
